Measurements reported in ChEMBL document CHEMBL1201862, “PubChem BioAssay data set” (2004).
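All cell lines were grown in 96-well plates and treated with compound for 48 hours. At the GI50, growth is halved.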 Active and inactive are the calls of the source. Rule as the data show it: active = GI50 up to about 1.1 µM and inactive = higher.

How the values were obtained:
Assay in all cases: NCI anticancer screen, dose series, 48 h
SK-MEL-2 = test system: SK-MEL-2
M14 = test system: M14
K562 = test system: K562
SK-MEL-5 = test system: SK-MEL-5
MOLT-4 = test system: MOLT-4
UACC-257 = test system: UACC-257
SK-OV-3 = test system: SK-OV-3
NCI-H460 = test system: NCI-H460
OVCAR-8 = test system: OVCAR-8
NCI/ADR-RES = test system: NCI/ADR-RES
OVCAR-4 = test system: OVCAR-4
UO-31 = test system: UO-31
HT-29 = test system: HT-29
A549 = test system: A549
SNB-75 = test system: SNB-75
SF-268 = test system: SF-268
HCT-116 = test system: HCT-116
MDA-N = test system: MDA-N
BT-549 = test system: BT-549

Measured: GI50

CCSc1nc(=S)n(-c2ccccc2)c(C)c1C(C)=O
inactive: SK-MEL-2 > 100 µM | M14 > 100 µM | K562 > 100 µM | SK-MEL-5 > 100 µM | MOLT-4 > 100 µM | UACC-257 > 100 µM | SK-OV-3 > 100 µM | NCI-H460 > 100 µM | OVCAR-8 > 100 µM | NCI/ADR-RES > 100 µM | OVCAR-4 > 100 µM | UO-31 > 100 µM | HT-29 > 100 µM | A549 > 100 µM | SNB-75 > 100 µM | SF-268 > 100 µM | HCT-116 > 100 µM

COC(=O)[C@H](Cc1ccccc1)NP(=O)(O)OCC1OC(n2cc(C)c(=O)[nH]c2=O)CC1N=[N+]=[N-] (stereo partly specified)
inactive: SK-MEL-2 > 100 µM | M14 > 100 µM | K562 > 100 µM | SK-MEL-5 > 100 µM | MOLT-4 > 100 µM | UACC-257 > 100 µM | SK-OV-3 > 100 µM | MDA-N > 100 µM | NCI-H460 > 100 µM | OVCAR-8 > 100 µM | NCI/ADR-RES > 100 µM | OVCAR-4 > 100 µM | UO-31 > 100 µM | HT-29 > 100 µM | A549 > 100 µM | SNB-75 > 100 µM | SF-268 > 100 µM | HCT-116 > 100 µM

CN1CC2=C(N=C(S)NC2c2ccccc2Cl)/C(=C/c2ccccc2Cl)C1 (stereo unspecified)
inactive: SK-MEL-2 69 µM | M14 38.9 µM | K562 29 µM | SK-MEL-5 12.2 µM | MOLT-4 23 µM | UACC-257 55.8 µM | SK-OV-3 > 100 µM | MDA-N 60.3 µM | NCI-H460 > 100 µM | OVCAR-8 33 µM | NCI/ADR-RES 30.5 µM | OVCAR-4 14.3 µM | UO-31 25.6 µM | HT-29 30.8 µM | A549 30.5 µM | SNB-75 3.33 µM | SF-268 95.9 µM | HCT-116 30.9 µM

COc1cc([C@@H]2c3cc4c(cc3[C@@H](c3c(O)cc(O)c5c3O[C@H](c3ccc(O)c(O)c3)[C@@H](O)C5)[C@H]3COC(=O)[C@H]23)OCO4)cc(OC)c1OC
inactive: SK-MEL-2 1.88 µM | M14 25.1 µM | K562 9.31 µM | SK-MEL-5 17 µM | MOLT-4 30.5 µM | UACC-257 1.95 µM | SK-OV-3 1.83 µM | NCI-H460 1.87 µM | OVCAR-8 44.4 µM | NCI/ADR-RES 46 µM | BT-549 > 100 µM | OVCAR-4 1.8 µM | HT-29 25.5 µM | A549 29.9 µM | SF-268 29.7 µM | HCT-116 21.1 µM

O=C(O)CN1CCN2CCOCCN(CC1)CCN(CC(=O)O)CC2
inactive: SK-MEL-2 > 100 µM | M14 > 100 µM | K562 > 100 µM | SK-MEL-5 > 100 µM | MOLT-4 > 100 µM | UACC-257 > 100 µM | SK-OV-3 > 100 µM | NCI-H460 > 100 µM | OVCAR-8 > 100 µM | NCI/ADR-RES > 100 µM | BT-549 > 100 µM | OVCAR-4 > 100 µM | UO-31 > 100 µM | HT-29 > 100 µM | A549 > 100 µM | SNB-75 > 100 µM | SF-268 > 100 µM | HCT-116 > 100 µM

CCOC(=O)C1=C(C)OC2(O)C=CC(O)=C3C(=O)N(c4ccccc4)C(=O)C312 (stereo unspecified)
inactive: SK-MEL-2 30.5 µM | M14 50.5 µM | K562 32.7 µM | MOLT-4 29.7 µM | UACC-257 39.1 µM | SK-OV-3 90.8 µM | NCI-H460 > 100 µM | OVCAR-8 52 µM | NCI/ADR-RES 42.2 µM | BT-549 31.6 µM | OVCAR-4 31.5 µM | UO-31 24.4 µM | HT-29 29.3 µM | A549 > 100 µM | SNB-75 41.8 µM | SF-268 38.7 µM | HCT-116 54.8 µM

N#Cc1nc(C(O)c2ccccc2)oc1N (stereo unspecified)
inactive: SK-MEL-2 > 100 µM | M14 > 100 µM | K562 > 100 µM | SK-MEL-5 > 100 µM | MOLT-4 > 100 µM | UACC-257 > 100 µM | SK-OV-3 > 100 µM | MDA-N > 100 µM | OVCAR-8 > 100 µM | NCI/ADR-RES > 100 µM | UO-31 > 100 µM | HT-29 > 100 µM | A549 > 100 µM | SNB-75 > 100 µM | SF-268 > 100 µM | HCT-116 > 100 µM

O=C(O)CCCc1ccc2c(c1)CC1(C2)Cc2ccc(CCCC(=O)O)cc2C1
inactive: SK-MEL-2 > 100 µM | M14 > 100 µM | K562 > 100 µM | SK-MEL-5 54 µM | MOLT-4 > 100 µM | UACC-257 > 100 µM | SK-OV-3 > 100 µM | MDA-N > 100 µM | OVCAR-8 > 100 µM | NCI/ADR-RES > 100 µM | OVCAR-4 > 100 µM | UO-31 > 100 µM | HT-29 > 100 µM | A549 > 100 µM | HCT-116 > 100 µM

S=C(NN=C1NCCCN1)Nc1ccccc1
inactive: SK-MEL-2 > 100 µM | K562 99.5 µM | SK-MEL-5 > 100 µM | MOLT-4 48.3 µM | UACC-257 > 100 µM | SK-OV-3 > 100 µM | NCI-H460 > 100 µM | OVCAR-8 > 100 µM | NCI/ADR-RES > 100 µM | BT-549 > 100 µM | OVCAR-4 > 100 µM | UO-31 > 100 µM | HT-29 > 100 µM | A549 > 100 µM | SNB-75 > 100 µM | SF-268 > 100 µM | HCT-116 > 100 µM

COc1ccc2c(c1)CC[C@@H]1[C@@H]2CC[C@]2(C)C(=O)/C(=C/c3ccc(OC)c(OC)c3)C[C@@H]12
inactive: SK-MEL-2 > 100 µM | M14 > 100 µM | SK-MEL-5 > 100 µM | MOLT-4 > 100 µM | SK-OV-3 > 100 µM | NCI-H460 > 100 µM | NCI/ADR-RES > 100 µM | BT-549 > 100 µM | OVCAR-4 > 100 µM | UO-31 > 100 µM | A549 > 100 µM | SNB-75 > 100 µM | HCT-116 65.9 µM

CC(=O)NNc1nc(C)c(C(=O)NNC(=O)C(=O)Nc2ccc(Cl)cc2Cl)s1
inactive: SK-MEL-2 44.1 µM | M14 42.5 µM | K562 21 µM | SK-MEL-5 30.5 µM | MOLT-4 20.1 µM | UACC-257 31 µM | SK-OV-3 31.9 µM | NCI-H460 > 10 µM | OVCAR-8 40.2 µM | OVCAR-4 22 µM | UO-31 28.2 µM | HT-29 48.5 µM | A549 35.9 µM | SF-268 27.4 µM | HCT-116 47.2 µM

Cn1/c(=N\c2ccc(Cl)cc2)sc2ccccc21
inactive: SK-MEL-2 39.4 µM | K562 57.9 µM | SK-MEL-5 27.7 µM | MOLT-4 48.2 µM | UACC-257 35.7 µM | SK-OV-3 > 100 µM | NCI-H460 40.7 µM | OVCAR-8 38.5 µM | NCI/ADR-RES 34.7 µM | OVCAR-4 > 100 µM | UO-31 26.1 µM | HT-29 32.7 µM | A549 32.5 µM | SNB-75 45.8 µM | SF-268 > 100 µM | HCT-116 37 µM

CC1(C)CC(c2c[nH]c3ccccc23)=CC2=Nc3ccccc3C21O (stereo unspecified)
inactive: SK-MEL-2 > 100 µM | M14 > 100 µM | K562 91.6 µM | SK-MEL-5 36.4 µM | MOLT-4 > 100 µM | UACC-257 > 100 µM | SK-OV-3 > 100 µM | NCI-H460 > 100 µM | OVCAR-8 27 µM | OVCAR-4 8.38 µM | UO-31 > 100 µM | HT-29 59.4 µM | A549 35.5 µM | SNB-75 5.94 µM | SF-268 > 100 µM | HCT-116 41.8 µM

Cc1cccc(Nc2cn(CCOc3ccccc3)c(=O)n(CCOc3ccccc3)c2=O)c1
inactive: M14 > 100 µM | K562 > 100 µM | SK-MEL-5 > 100 µM | MOLT-4 > 100 µM | UACC-257 > 100 µM | MDA-N > 100 µM | NCI-H460 > 100 µM | OVCAR-4 > 100 µM | UO-31 > 100 µM | A549 > 100 µM | SF-268 > 100 µM | HCT-116 > 100 µM

COc1nc2c(c(=O)[nH]1)N=C(c1ccccc1)CC(c1ccccc1)N2 (stereo unspecified)
inactive: SK-MEL-2 29.6 µM | M14 34.3 µM | K562 25.3 µM | SK-MEL-5 38.3 µM | MOLT-4 31.3 µM | UACC-257 > 100 µM | SK-OV-3 58.5 µM | NCI-H460 35.6 µM | OVCAR-8 28.1 µM | NCI/ADR-RES 27.3 µM | BT-549 37.4 µM | OVCAR-4 26.9 µM | UO-31 39.6 µM | HT-29 44.7 µM | A549 55.6 µM | SNB-75 15.3 µM | HCT-116 33.8 µM

CCC1CNC(=O)CC1CC(=O)OC (stereo unspecified)
inactive: SK-MEL-2 > 100 µM | M14 > 100 µM | K562 > 100 µM | SK-MEL-5 > 100 µM | MOLT-4 > 100 µM | SK-OV-3 > 100 µM | OVCAR-4 > 100 µM | UO-31 > 100 µM | A549 > 100 µM | SNB-75 > 100 µM | SF-268 > 100 µM | HCT-116 > 100 µM

NCC1Nc2ccccc2[C@@H](O)C1O (stereo partly specified)
inactive: SK-MEL-2 > 100 µM | M14 > 100 µM | K562 > 100 µM | SK-MEL-5 > 100 µM | MOLT-4 > 100 µM | UACC-257 > 100 µM | SK-OV-3 > 100 µM | MDA-N > 100 µM | NCI-H460 > 100 µM | OVCAR-8 > 100 µM | NCI/ADR-RES > 100 µM | OVCAR-4 > 100 µM | UO-31 > 100 µM | HT-29 > 100 µM | A549 > 100 µM | SNB-75 > 100 µM | SF-268 > 100 µM | HCT-116 > 100 µM
